Common to all, as to assay type: biochemical
The target in assay [1] is MMP-3CD (catalytic domain of stromelysin-1) (Homo sapiens, UniProt P08254). Briefly: Thiopeptolide hydrolysis assay, MMP-3CD. The note with it: thiopeptolide substrate, MES buffer pH 6.0. As to the method: (§1) The invention compounds of Formula I have been evaluated in standard assays for their ability to inhibit the catalytic activity of various MMP enzymes.
(§2) Thiopeptolide substrates show virtually no decomposition or hydrolysis at or below neutral pH in the absence of a matrix metalloproteinase enzyme.
(§3) Several representative compounds have been evaluated for their ability to inhibit various matrix metalloproteinase enzymes.
It should be appreciated that the assay buffer used with MMP-3CD was 50 mM of N-morpholinoethane sulfonate (“MES”) at pH 6.0 rather than the HEPES buffer at pH 7.0 described above.

Assay [2] concerns the target T1, MMP-7FL (full-length matrilysin) (Homo sapiens, UniProt P09237).
T1 sequence (P09237 95-267): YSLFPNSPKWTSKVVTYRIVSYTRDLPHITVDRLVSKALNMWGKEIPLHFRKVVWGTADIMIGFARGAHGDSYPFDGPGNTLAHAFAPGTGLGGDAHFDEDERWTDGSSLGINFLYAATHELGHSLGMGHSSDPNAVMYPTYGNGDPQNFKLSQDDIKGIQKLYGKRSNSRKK
Briefly: Thiopeptolide hydrolysis assay, MMP-7FL. The following applies: thiopeptolide substrate, HEPES pH 7.0.
From the text: as §1, §2, §3

Assay [3] concerns the target MMP-13CD (catalytic domain of collagenase 3) (Homo sapiens, UniProt P45452). Description: Thiopeptolide hydrolysis assay, MMP-13CD. The note with it: thiopeptolide substrate, HEPES pH 7.0.
From the text: as §1, §2, §3

Assay [4] concerns the target T2, MMP-1FL (full-length interstitial collagenase) (Homo sapiens, UniProt P03956).
T2 sequence (P03956 100-469): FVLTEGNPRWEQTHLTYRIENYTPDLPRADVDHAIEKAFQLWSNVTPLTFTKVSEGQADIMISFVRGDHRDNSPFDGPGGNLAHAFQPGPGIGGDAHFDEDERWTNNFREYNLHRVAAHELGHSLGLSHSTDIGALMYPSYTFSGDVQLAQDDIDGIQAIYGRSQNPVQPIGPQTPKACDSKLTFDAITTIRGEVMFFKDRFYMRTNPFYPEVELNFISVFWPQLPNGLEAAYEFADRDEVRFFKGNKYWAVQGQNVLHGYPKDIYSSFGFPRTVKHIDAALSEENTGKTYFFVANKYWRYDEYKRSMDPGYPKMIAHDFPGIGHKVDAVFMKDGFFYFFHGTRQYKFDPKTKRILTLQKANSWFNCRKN
Description: Thiopeptolide hydrolysis assay, MMP-1FL. The following applies: Table 2; thiopeptolide substrate, HEPES pH 7.0; read-out: IC50 (μM) Versus Certain MMPs: MMP01 (FL).
From the text: as §1, §2, §3

Assay [5] concerns the target MMP-9FL (full-length Gelatinase B) (Homo sapiens, UniProt P14780). Description: Thiopeptolide hydrolysis assay, MMP-9FL. The following applies: Table 2; thiopeptolide substrate, HEPES pH 7.0; read-out: IC50 (μM) Versus Certain MMPs: MMP09 (FL).
From the text: as §1, §2, §3

The target of assay [6] is MMP-14CD (catalytic domain of MMP-14) (Homo sapiens, UniProt P50281). Description: Thiopeptolide hydrolysis assay, MMP-14CD. The note with it: Table 2; thiopeptolide substrate, HEPES pH 7.0; read-out: IC50 (μM) Versus Certain MMPs: MMP14 (CD).
From the text: as §1, §2, §3

Setting [7] is: Table 2, read-out: IC50 (μM) Versus Certain MMPs: MMP03 (CD).
Setting [8] is: Table 2, read-out: IC50 (μM) Versus Certain MMPs: MMP07 (FL).
[9] abbreviates: Table 2, read-out: IC50 (μM) Versus Certain MMPs: MMP13 (CD).

Each structure is given as a SMILES string. Read-outs that look alike come from different tables or passages of the source.

Sequence of MMP-9FL (full-length Gelatinase B) (P14780 94-707, species assumed): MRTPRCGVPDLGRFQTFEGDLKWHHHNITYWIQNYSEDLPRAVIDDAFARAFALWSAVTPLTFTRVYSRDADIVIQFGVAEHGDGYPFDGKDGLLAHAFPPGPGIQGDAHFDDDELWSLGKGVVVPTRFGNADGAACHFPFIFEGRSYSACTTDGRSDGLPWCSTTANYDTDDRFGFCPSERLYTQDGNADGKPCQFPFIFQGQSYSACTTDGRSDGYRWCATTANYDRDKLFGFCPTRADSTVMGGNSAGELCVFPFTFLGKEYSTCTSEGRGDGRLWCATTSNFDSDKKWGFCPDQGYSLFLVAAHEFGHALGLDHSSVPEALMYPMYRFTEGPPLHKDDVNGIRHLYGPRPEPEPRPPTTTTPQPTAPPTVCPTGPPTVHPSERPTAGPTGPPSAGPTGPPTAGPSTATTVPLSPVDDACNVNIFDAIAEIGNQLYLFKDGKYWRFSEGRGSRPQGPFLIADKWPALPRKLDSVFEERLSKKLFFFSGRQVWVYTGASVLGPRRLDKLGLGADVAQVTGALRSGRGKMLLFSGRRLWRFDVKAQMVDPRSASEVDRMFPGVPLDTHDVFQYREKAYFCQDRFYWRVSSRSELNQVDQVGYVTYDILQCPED
Sequence of MMP-3CD (catalytic domain of stromelysin-1) (P08254 100-272 limits assumed): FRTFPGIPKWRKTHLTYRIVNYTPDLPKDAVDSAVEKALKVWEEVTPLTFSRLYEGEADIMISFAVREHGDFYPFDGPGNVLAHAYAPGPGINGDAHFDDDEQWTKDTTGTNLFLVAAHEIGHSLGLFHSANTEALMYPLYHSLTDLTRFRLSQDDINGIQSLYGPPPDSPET

As a reminder, the IC50 is the concentration at which inhibition is half-maximal. Consider `CN1C(=O)N(Cc2ccccc2)S(=O)(=O)c2cc(C(=O)OCc3ccccc3)ccc21` [Example 1, 2-Benzyl-4-methyl-1,1,3-trioxo-1,2,3,4-tetrahydro-1l^6-benzo[1,2,4]thiadiazine-7-carboxylic Acid Benzyl Ester], for which the IC50 in assay [1] (Table 1, read-out: MMP03 (CD) IC50) stood at 85 µM; in assay [2] (Table 1, read-out: MMP07 (FL) IC50) it was 44 µM; in assay [3] (Table 1, read-out: MMP13 (CD) IC50), 0.2 µM.

With `COc1ccc(CNC(=O)c2ccc3c(c2)S(=O)(=O)N(Cc2ccc(C(N)=O)cc2)C(=O)N3C)cc1` [Example 14, 2-(4-Carbamoyl-benzyl)-4-methyl-1,1,3-trioxo-1,2,3,4-tetrahydro-1l^6-benzo[1,2,4]thiadiazine-7-carboxylic acid 4-methoxy-benzylamide], the IC50 in assay [4] was greater than 30 µM; in assay [1] (setting [7]) it was greater than 100 µM; in assay [2] (setting [8]) it was greater than 30 µM; in assay [5] it was greater than 30 µM; in assay [3] (setting [9]) it was 0.155 µM; in assay [6], greater than 30 µM.

With `CN1C(=O)N(Cc2ccccc2)S(=O)(=O)c2cc(C(=O)NCc3ccc(F)cc3)ccc21` [Example 16, 2-Benzyl-4-methyl-1,1,3-trioxo-1,2,3,4-tetrahydro-1l^6-benzo[1,2,4]thiadiazine-7-carboxylic acid 4-fluoro-benzylamide], the IC50 in assay [4] is greater than 100 µM; in assay [1] (setting [7]) it was greater than 100 µM; in assay [2] (setting [8]), greater than 30 µM; in assay [5], greater than 30 µM; in assay [3] (setting [9]), 0.345 µM; in assay [6], greater than 30 µM.

As for `CNS(=O)(=O)c1ccc(CN2C(=O)N(C)c3ccc(C(=O)NCc4ccc(OC)cc4)cc3S2(=O)=O)cc1` [Example 18, 4-Methyl-2-(4-methylsulfamoyl-benzyl)-1,1,3-trioxo-1,2,3,4-tetrahydro-1l^6-benzo[1,2,4]thiadiazine-7-carboxylic acid 4-methoxy-benzylamide], the IC50 is greater than 30 µM in assay [4]; 10 µM in assay [1] (setting [7]); greater than 30 µM in assay [2] (setting [8]); greater than 30 µM in assay [5]; 0.31 µM in assay [3] (setting [9]); greater than 30 µM in assay [6].

With `COc1ccc(CNC(=O)c2ccc3c(c2)S(=O)(=O)N(Cc2ccc(S(=O)(=O)N4CCOCC4)cc2)C(=O)N3C)cc1` [Example 19, 4-Methyl-2-[4-(morpholine-4-sulfonyl)-benzyl]-1,1,3-trioxo-1,2,3,4-tetrahydro-1l^6-benzo[1,2,4]thiadiazine-7-carboxylic acid 4-methoxy-benzylamide], the IC50 was greater than 30 µM in assay [4]; 11 µM in assay [1] (setting [7]); greater than 30 µM in assay [2] (setting [8]); greater than 30 µM in assay [5]; 0.23 µM in assay [3] (setting [9]); greater than 30 µM in assay [6].

With `COC(=O)c1ccc(CN2C(=O)N(C)c3ccc(C(=O)NCc4ccc(F)cc4)cc3S2(=O)=O)cc1` [Example 20, 4-[7-(4-Fluoro-benzylcarbamoyl)-4-methyl-1,1,3-trioxo-3,4-dihydro-1H-1l^6-benzo[1,2,4]thiadiazin-2-ylmethyl]-benzoic Acid Methyl Ester], the IC50 in assay [4] is greater than 30 µM; in assay [1] (setting [7]), greater than 30 µM; in assay [2] (setting [8]), greater than 30 µM; in assay [5], 10 µM; in assay [3] (setting [9]), 0.385 µM; in assay [6] it was greater than 30 µM.

With `COc1cc(CNC(=O)c2ccc3c(c2)S(=O)(=O)N(Cc2ccccc2)C(=O)N3C)ccn1` [Example 21, 2-Benzyl-4-methyl-1,1,3-trioxo-1,2,3,4-tetrahydro-1l^6-benzo[1,2,4]thiadiazine-7-carboxylic acid (2-methoxy-pyridin-4-ylmethyl)-amide], the IC50 in assay [4] is greater than 30 µM; in assay [1] (setting [7]), greater than 30 µM; in assay [2] (setting [8]), greater than 30 µM; in assay [5], greater than 30 µM; in assay [3] (setting [9]) it was 0.155 µM; in assay [6], greater than 100 µM.

Source of the values: patent US6656932B2, “Benzo thiadiazine matrix metalloproteinase inhibitors” (Warner-Lambert Company, priority 2001, dated 2003).
